Experimental data reported in patent US4352792A, “3-Alkoxyflavone antiviral agents” (priority 1979, dated 1982).
Values after ≈ are worked out from the molar mass of the structure shown. Read-outs that look alike come from different tables or passages of the source.

Key:
Coxsackie virus B1 [1] = assay: Anti-Coxsackie virus activity, lethal infection in mice
Coxsackie virus B1 [2] = assay: Inhibition of viral cytopathogenic effect in HeLa cells (Coxsackie virus B1); format: cell-based; conditions: 24 h, read-out: IC50 Coxsackie virus B1
acute toxicity in mice = conditions: mouse, in vivo, day 21
rhinovirus HGP = assay: Inhibition of viral cytopathogenic effect in HeLa cells (rhinovirus HGP); format: cell-based; conditions: Enterovirus, 48 h, read-out: IC50 rhinovirus HGP
Coxsackie virus B1 [3] = system: Coxsackie virus B1
influenzavirus A2/Adachi = assay: Anti-influenzavirus activity in mice; conditions: up to 21 days; for Survivals: survivors/total
[4] = Mus musculus, iv, 504 h, read-out: Survival
[5] = ip, single dose i.p., dissolved in dimethyl sulfoxide, read-out: LD50 i.p.
[6] = po, single dose p.o., suspended in 0.5% carboxymethylcellulose, read-out: LD50 p.o.
[7] = 50% inhibition of viral c.p.e., HeLa cells, 2 days at 33° C.
[8] = 50% inhibition of viral c.p.e., HeLa cells, 1 day at 37° C.
[9] = Mus musculus, po, 504 h, read-out: Survival
[10] = Mus musculus, ip, 504 h, read-out: Survival

## COc1cc(O)c2c(=O)c(OC)c(-c3ccc(OC(=O)[C@H](C)N)c(OC)c3)oc2c1 [4'-(L-alanyloxy)-5-hydroxy-3,3',7-trimethoxyflavone]
Coxsackie virus B1 [1]; [4]
  responders at 10 mg/kg: 42%
Coxsackie virus B1 [2]; HeLa
  IC50: 0.25 to 0.5 µg/mL (≈ 0.602 to 1.2 µM)
Acute toxicity in mice; [5]
  LD50 at 504 h: > 1000 mg/kg
Acute toxicity in mice; [6]
  LD50 at 504 h: > 5000 mg/kg
Rhinovirus HGP; [7]
  IC50: 0.5 µg/mL (≈ 1.2 µM)

## COc1cc(O)c2c(=O)c(OC)c(-c3ccc(O[C@@H]4O[C@H](CO)[C@@H](O)[C@H](O)[C@H]4O)c(OC)c3)oc2c1 [4'-(β-D-glucopyranosyloxy)-5-hydroxy-3,3',7-trimethoxyflavone]
Coxsackie virus B1 [2]; [8]
  IC50: 0.25 to 0.5 µg/mL (≈ 0.494 to 0.987 µM)
Rhinovirus HGP; [7]
  IC50: 0.25 µg/mL (≈ 0.494 µM)

## COc1c(-c2ccc(N)cc2)oc2cc(O)cc(O)c2c1=O [4'-amino-5,7-dihydroxy-3-methoxyflavone]
Coxsackie virus B1 [2]; [8]
  IC50: 3 to 10 µg/mL (≈ 10 to 33.4 µM)
Rhinovirus HGP; [7]
  IC50: 1 to 3 µg/mL (≈ 3.34 to 10 µM)

## COc1cc(OC)c2c(=O)c(OC)c(-c3ccc(O)c(OC)c3)oc2c1 [4'-hydroxy-3,3',5,7-tetramethoxyflavone]
Coxsackie virus B1 [2]; [8]
  IC50: 6 to 7 µg/mL (≈ 16.7 to 19.5 µM)
Rhinovirus HGP; [7]
  IC50: 2 to 7 µg/mL (≈ 5.58 to 19.5 µM)

## COc1cc(OC(=O)c2cccnc2)c2c(=O)c(OC)c(-c3ccc(OC(=O)c4cccnc4)c(OC)c3)oc2c1 [3,3',7-trimethoxy-4',5-bis-(nicotinoyloxy)-flavone]
Coxsackie virus B1 [1]; [9]
  responders at 10 mg/kg: 40%
  responders at 20 mg/kg: 30%
Coxsackie virus B1 [2]; [8]
  IC50: 0.3 to 1 µg/mL (≈ 0.541 to 1.8 µM)
Rhinovirus HGP; [7]
  IC50: 0.3 to 1 µg/mL (≈ 0.541 to 1.8 µM)

## COc1cc(O)c2c(=O)c(OC)c(-c3ccc(OC(C)=O)c(OC)c3)oc2c1 [4'-acetoxy-5-hydroxy-3,3',7-trimethoxyflavone]
Coxsackie virus B1 [2]; [8]
  IC50: 0.25 to 0.5 µg/mL (≈ 0.647 to 1.29 µM)
Rhinovirus HGP; [7]
  IC50: 0.5 µg/mL (≈ 1.29 µM)

## COc1cc(O)c2c(=O)c(OC)c(-c3ccc(OC(=O)[C@@H](N)CCC(N)=O)c(OC)c3)oc2c1 [4'-(L-glutaminyloxy)-5-hydroxy-3,3',7-trimethoxyflavone]
Coxsackie virus B1 [1]; [4]
  responders at 10 mg/kg: 54%
Coxsackie virus B1 [2]; HeLa
  IC50: 0.25 to 0.5 µg/mL (≈ 0.529 to 1.06 µM)
Acute toxicity in mice; [5]
  LD50 at 504 h: > 1000 mg/kg
Acute toxicity in mice; [6]
  LD50 at 504 h: > 5000 mg/kg
Rhinovirus HGP; [7]
  IC50: 0.25 to 0.5 µg/mL (≈ 0.529 to 1.06 µM)

## COc1cc(O)c2c(=O)c(OC)c(-c3ccc(OC(=O)C(O)C(O)C(=O)O)c(OC)c3)oc2c1 (centres unmarked) [4'-(3-carboxy-2,3-dihydroxypropionyloxy)-5-hydroxy-3,3',7-trimethoxyflavone]
Coxsackie virus B1 [2]; [8]
  IC50: 0.1 to 0.2 µg/mL (≈ 0.21 to 0.42 µM)
Rhinovirus HGP; [7]
  IC50: 0.1 to 0.2 µg/mL (≈ 0.21 to 0.42 µM)

## COc1ccc(-c2oc3cc(OC)cc(O)c3c(=O)c2OC)cc1 [5-hydroxy-3,4',7-trimethoxyflavone]
Coxsackie virus B1 [2]; [8]
  IC50: > 8 µg/mL
Rhinovirus HGP; [7]
  IC50: 1 µg/mL (≈ 3.05 µM)

## COc1cc(OC(C)=O)c2c(=O)c(OC)c(-c3ccc(OC(C)=O)c(OC)c3)oc2c1
Coxsackie virus B1 [1]; 40 mg/kg × 9, p.o., up to 21 days
  Survival: 50%
Coxsackie virus B1 [1]; [10]
  responders at 10 mg/kg: 54%
  responders at 20 mg/kg: 67%
Coxsackie virus B1 [1]; [9]
  responders at 20 mg/kg: 20%
  responders at 40 mg/kg: 50%
  responders at 80 mg/kg: 60%
Coxsackie virus B1 [2]; HeLa
  IC50: 0.1 to 0.2 µg/mL (≈ 0.233 to 0.467 µM)
Coxsackie virus B1 [3]; 10 mg/kg × 9 orally, infection 2.5x LD50, day 21
  Survivors/total: 2/7
Coxsackie virus B1 [3]; 10 mg/kg × 9 orally, infection 10x LD50, day 21
  Survivors/total: 1/7
Coxsackie virus B1 [3]; 10 mg/kg × 9 orally, infection 40x LD50, day 21
  Survivors/total: 0/7
Coxsackie virus B1 [3]; 10 mg/kg × 9 orally, infection 160x LD50, day 21
  Survivors/total: 0/7
Coxsackie virus B1 [3]; 20 mg/kg × 9 orally, infection 2.5x LD50, day 21
  Survivors/total: 3/7
Coxsackie virus B1 [3]; 20 mg/kg × 9 orally, infection 10x LD50, day 21
  Survivors/total: 2/7
Coxsackie virus B1 [3]; 20 mg/kg × 9 orally, infection 40x LD50, day 21
  Survivors/total: 1/7
Coxsackie virus B1 [3]; 20 mg/kg × 9 orally, infection 160x LD50, day 21
  Survivors/total: 1/7
Coxsackie virus B1 [3]; 40 mg/kg × 9 orally, infection 2.5x LD50, day 21
  Survivors/total: 4/7
Coxsackie virus B1 [3]; 40 mg/kg × 9 orally, infection 10x LD50, day 21
  Survivors/total: 3/7
Coxsackie virus B1 [3]; 40 mg/kg × 9 orally, infection 40x LD50, day 21
  Survivors/total: 2/7
Coxsackie virus B1 [3]; 40 mg/kg × 9 orally, infection 160x LD50, day 21
  Survivors/total: 2/7
Acute toxicity in mice; [5]
  LD50 at 504 h: > 1000 mg/kg
Acute toxicity in mice; [6]
  LD50 at 504 h: > 5000 mg/kg
Influenzavirus A2/Adachi; 20 mg/kg × 9, i.p.
  Survivals: 2/7
  Survivals (%): 29%
Influenzavirus A2/Adachi; 40 mg/kg × 9, i.p.
  Survivals: 3/8
  Survivals (%): 38%
Rhinovirus HGP; [7]
  IC50: 0.1 to 0.2 µg/mL (≈ 0.233 to 0.467 µM)

## COc1cc(O)c2c(=O)c(OC(C)C)c(-c3ccc(O)c(OC)c3)oc2c1 [4',5-dihydroxy-3-isopropoxy-3',7-dimethoxyflavone]
Coxsackie virus B1 [2]; [8]
  IC50: 0.05 to 0.1 µg/mL (≈ 0.134 to 0.269 µM)
Rhinovirus HGP; [7]
  IC50: 0.05 to 0.1 µg/mL (≈ 0.134 to 0.269 µM)

## COc1cc(O)c2c(=O)c(OC)c(-c3ccc(N)cc3)oc2c1 [4'-amino-5-hydroxy-3,7-dimethoxyflavone]
Coxsackie virus B1 [2]; [8]
  IC50: 10 to 30 µg/mL (≈ 31.9 to 95.8 µM)
Rhinovirus HGP; [7]
  IC50: 3 µg/mL (≈ 9.58 µM)

## COc1cc(OC(=O)C(C)C)c2c(=O)c(OC)c(-c3ccc(OC(=O)C(C)(C)C)c(OC)c3)oc2c1 [5-(isobutyryloxy)-3,3',7-trimethoxy-4'-(pivaloyloxy)-flavone]
Coxsackie virus B1 [1]; [9]
  responders at 10 mg/kg: 30%
  responders at 20 mg/kg: 40%
Coxsackie virus B1 [2]; [8]
  IC50: 0.3 to 1 µg/mL (≈ 0.602 to 2.01 µM)
Rhinovirus HGP; [7]
  IC50: 0.3 µg/mL (≈ 0.602 µM)

## NC12CC3CC(CC(C3)C1)C2 [amantadine, reference compound]
Influenzavirus A2/Adachi; 20 mg/kg × 9, i.p.
  Survivals (%): 0%
Influenzavirus A2/Adachi; 40 mg/kg × 9, i.p.
  Survivals: 2/7
  Survivals (%): 29%

## COc1cc(O)c2c(=O)c(OC)c(-c3ccc(OC(=O)[C@@H](N)CCC(=O)O)c(OC)c3)oc2c1 [4'-(L-α-glutamyloxy)-5-hydroxy-3,3',7-trimethoxyflavone]
Coxsackie virus B1 [2]; [8]
  IC50: 0.25 to 0.5 µg/mL (≈ 0.528 to 1.06 µM)
Rhinovirus HGP; [7]
  IC50: 0.25 µg/mL (≈ 0.528 µM)

## CCOc1c(-c2ccc(O)c(OC)c2)oc2cc(OC)cc(O)c2c1=O [3-ethoxy-4',5-dihydroxy-3',7-dimethoxyflavone]
Coxsackie virus B1 [2]; [8]
  IC50: 0.05 to 0.1 µg/mL (≈ 0.14 to 0.279 µM)
Rhinovirus HGP; [7]
  IC50: 0.05 to 0.1 µg/mL (≈ 0.14 to 0.279 µM)

## CCC(=O)Oc1ccc(-c2oc3cc(OC)cc(OC(=O)CC)c3c(=O)c2OC)cc1OC [3,3',7-trimethoxy-4',5-bis-(propionyloxy)-flavone]
Coxsackie virus B1 [2]; [8]
  IC50: 0.1 to 1.2 µg/mL (≈ 0.219 to 2.63 µM)
Rhinovirus HGP; [7]
  IC50: 0.1 to 0.2 µg/mL (≈ 0.219 to 0.438 µM)

## COc1cc(O)c2c(=O)c(OC)c(-c3ccc(OC)c(O)c3)oc2c1 [3',5-dihydroxy-3,4',7-trimethoxyflavone]
Coxsackie virus B1 [2]; [8]
  IC50: 3 to 10 µg/mL (≈ 8.71 to 29 µM)
Rhinovirus HGP; [7]
  IC50: 3 µg/mL (≈ 8.71 µM)

## CCOC(=O)Oc1ccc(-c2oc3cc(OC)cc(OC(=O)OCC)c3c(=O)c2OC)cc1OC [4',5-bis-(ethoxycarbonyloxy)-3,3',7-trimethoxyflavone]
Coxsackie virus B1 [1]; [9]
  responders at 10 mg/kg: 30%
  responders at 20 mg/kg: 30%
Coxsackie virus B1 [2]; [8]
  IC50: 0.3 to 1 µg/mL (≈ 0.614 to 2.05 µM)
Rhinovirus HGP; [7]
  IC50: 0.3 to 1 µg/mL (≈ 0.614 to 2.05 µM)

## COc1cc(O)c2c(=O)c(OC)c(-c3ccc(OC(=O)C(C)(C)C)c(OC)c3)oc2c1 [5-hydroxy-3,3',7-trimethoxy-4'-(pivaloyloxy)-flavone]
Coxsackie virus B1 [2]; [8]
  IC50: 0.3 to 1 µg/mL (≈ 0.7 to 2.33 µM)
Rhinovirus HGP; [7]
  IC50: 0.3 µg/mL (≈ 0.7 µM)

## COc1ccc(-c2oc3cc(O)cc(O)c3c(=O)c2OC)cc1 [5,7-dihydroxy-3,4'-dimethoxyflavone]
Coxsackie virus B1 [2]; HeLa
  IC50: > 4 µg/mL
Rhinovirus HGP; HeLa
  IC50: 0.5 µg/mL (≈ 1.59 µM)

## COc1cc(O)c2c(=O)c(OC)c(-c3ccc(OC(=O)[C@@H](N)CCCCN)c(OC)c3)oc2c1 [5-hydroxy-4'-(L-lysyloxy)-3,3',7-trimethoxyflavone]
Coxsackie virus B1 [1]; [4]
  responders at 10 mg/kg: 54%
Coxsackie virus B1 [2]; HeLa
  IC50: 0.25 µg/mL (≈ 0.529 µM)
Acute toxicity in mice; [5]
  LD50 at 504 h: 1000 mg/kg
Acute toxicity in mice; [6]
  LD50 at 504 h: > 5000 mg/kg
Rhinovirus HGP; [7]
  IC50: 0.25 µg/mL (≈ 0.529 µM)

## COc1cc(O)c2c(=O)c(OC)c(-c3ccc(O)cc3OC)oc2c1 [4',5-dihydroxy-2,',3,7-trimethoxyflavone, 4',5-dihydroxy-2',3,7-trimethoxyflavone]
Coxsackie virus B1 [2]; [8]
  IC50: 1 to 3 µg/mL (≈ 2.9 to 8.71 µM)
Rhinovirus HGP; [7]
  IC50: 0.3 µg/mL (≈ 0.871 µM)
